{
  "source": "paper PMC10541502",
  "about": "(Science Advances, 2023)",
  "test_system": "C57BL/6 mice",
  "details": "mouse",
  "note": "Ends that are not written are not given here.",
  "data": [
    {"sequence": "MSPSILKHWSRQGGGKKLLGLLLKLKLK [F6P6]", "values": [
      {"measurement": "In vivo toxicity, overall finding", "result": "did not induce primary toxic irritation"}
    ]},
    {"sequence": "MSPSILKHWSRQGGGKLKKLLLGLLLKK [F6P1]", "values": [
      {"measurement": "In vivo toxicity, overall finding", "result": "did not induce primary toxic irritation"}
    ]}
  ]
}
